Results taken from paper PMC10689823, “Discovery of a Drug-like, Natural Product-Inspired DCAF11 Ligand Chemotype” (Nature Communications, 2023).
Several values for one entry are separate records, joined by “and”; a condition that tells them apart may be missing. Equal entries are not always repeated.

Test system: BRD2
Assay: In-Cell Western for BRD2 levels in Hep G2 cells
Format: cell-based
Settings: then 9 (10 μM, 4 h); for BRD2/Vinculin intensity (relative to control group): Hep G2 cells, single repeats, Fig. 4h; for Value (Mean ± SD): Relative BRD2 levels remaining in Hep G2 cells after treatment with compounds followed by treatment with 9, with DMSO control for normalization: qualitative ICW assay, Supplementary Table 1
Experimental: Hep G2 cells were seeded in 96-well plates and incubated for 24 h. Compounds were added for the indicated time at the indicated concentration. Cells were then washed once with PBS and fixed with 4% paraformaldehyde for 30 min at room temperature. The fixed cells were permeabilized with 0.5 % Triton-X100 for 15 min followed by block with Intercept® Blocking Buffer (LI-COR Biosciences, 927-70001) for 1 h at room temperature. Primary antibodies for BRD2 (1:800) and Vinculin (1:2000) were diluted with LI-COR buffer and incubated with the cells at 4 °C overnight. Cells were washed with PBS-T, and the secondary antibodies conjugated to IRDye (1:1000, LI-COR Biosciences) were added to the cells for 1 h at room temperature. After washing the cells, the signal was recorded with the Odyssey® CLx Infrared Imaging System (LI-COR Biosciences) and the protein levels were analyzed by Image Studio (LI-COR Biosciences). BRD2 protein levels were normalized to the levels of reference protein vinculin.

[1] = pretreated with compound at 30 μM 1 h

Structure (SMILES): CC(=O)N1C(=O)C(=Cc2cc(Br)c(OCCO)c(Br)c2)c2cc(Br)ccc21 (mixture of isomers) [Compound 40]
- BRD2/Vinculin intensity (relative to control group) [1]: 50.1992 and 43.5119 and 52.0339 and 53.5687
- Value (Mean ± SD): Relative BRD2 levels remaining in Hep G2 cells after treatment with compounds followed by treatment with 9, with DMSO control for normalization (pretreated at 30 μM 1 h): 49.83 ± 3.84

Structure (SMILES): CN1C(=O)C(=Cc2cc(Br)c(OCCO)c(Br)c2)c2cc(Br)ccc21 (mixture of isomers) [Compound 45]
- BRD2/Vinculin intensity (relative to control group) [1]: 68.8291 and 61.2096 and 73.2245 and 67.5028
- Value (Mean ± SD): Relative BRD2 levels remaining in Hep G2 cells after treatment with compounds followed by treatment with 9, with DMSO control for normalization (pretreated at 30 μM 1 h): 67.69 ± 4.30

Structure (SMILES): O=C1Nc2cc(Cl)ccc2C1=Cc1c[nH]c2ccc(Br)cc12 [Compound 19]
- BRD2/Vinculin intensity (relative to control group) [1]: 19.139 and 23.0411 and 26.0065 and 21.6242
- Value (Mean ± SD): Relative BRD2 levels remaining in Hep G2 cells after treatment with compounds followed by treatment with 9, with DMSO control for normalization (pretreated at 30 μM 1 h): 22.45 ± 2.48

Structure (SMILES): Cc1cc(C=C2C(=O)Nc3cc(Cl)ccc32)c(C)n1-c1ccc(Cl)cc1 [Compound 20]
- BRD2/Vinculin intensity (relative to control group) [1]: 18.6668 and 28.7239 and 22.4508 and 22.3561
- Value (Mean ± SD): Relative BRD2 levels remaining in Hep G2 cells after treatment with compounds followed by treatment with 9, with DMSO control for normalization (pretreated at 30 μM 1 h): 23.05 ± 3.61

Structure (SMILES): Cc1ccc(C=C2C(=O)Nc3ccc(Br)cc32)o1 [Compound 21]
- BRD2/Vinculin intensity (relative to control group) [1]: 35.3621 and 27.9558 and 29.5667 and 18.9355
- Value (Mean ± SD): Relative BRD2 levels remaining in Hep G2 cells after treatment with compounds followed by treatment with 9, with DMSO control for normalization (pretreated at 30 μM 1 h): 27.96 ± 5.89

Structure (SMILES): CCn1cc(C=C2C(=O)N(C)c3ccccc32)c2ccccc21 [Compound 22]
- BRD2/Vinculin intensity (relative to control group) [1]: 27.5998 and 30.1143 and 27.5093 and 28.0162
- Value (Mean ± SD): Relative BRD2 levels remaining in Hep G2 cells after treatment with compounds followed by treatment with 9, with DMSO control for normalization (pretreated at 30 μM 1 h): 28.31 ± 1.06

Structure (SMILES): Cc1cccc(-n2c(C=C3C(=O)Nc4ccc(Br)cc43)nc3ccccc3c2=O)c1 [Compound 23]
- BRD2/Vinculin intensity (relative to control group) [1]: 33.3864 and 29.794 and 26.5816 and 25.9636
- Value (Mean ± SD): Relative BRD2 levels remaining in Hep G2 cells after treatment with compounds followed by treatment with 9, with DMSO control for normalization (pretreated at 30 μM 1 h): 28.93 ± 2.95

Structure (SMILES): O=C1Nc2ccc(Br)cc2C1=Cc1ccc(-c2ccc(Cl)cc2)o1 [Compound 24]
- BRD2/Vinculin intensity (relative to control group) [1]: 33.2997 and 37.4269 and 27.7324 and 30.7224
- Value (Mean ± SD): Relative BRD2 levels remaining in Hep G2 cells after treatment with compounds followed by treatment with 9, with DMSO control for normalization (pretreated at 30 μM 1 h): 32.30 ± 3.56

Structure (SMILES): CCOC(=O)c1ccc(-c2ccc(C=C3C(=O)Nc4ccc(Br)cc43)o2)cc1 [Compound 25]
- BRD2/Vinculin intensity (relative to control group) [1]: 36.1651 and 31.9974 and 32.0528 and 31.1097
- Value (Mean ± SD): Relative BRD2 levels remaining in Hep G2 cells after treatment with compounds followed by treatment with 9, with DMSO control for normalization (pretreated at 30 μM 1 h): 32.83 ± 1.96

Structure (SMILES): O=C1Nc2ccc(Br)cc2C1=Cc1ccc2ccccc2n1 [Compound 26]
- BRD2/Vinculin intensity (relative to control group) [1]: 39.8782 and 39.8556 and 38.9972 and 37.1452
- Value (Mean ± SD): Relative BRD2 levels remaining in Hep G2 cells after treatment with compounds followed by treatment with 9, with DMSO control for normalization (pretreated at 30 μM 1 h): 38.97 ± 1.11

Structure (SMILES): COc1cccc(C=C2C(=O)Nc3ccc(Br)cc32)c1OCc1ccccc1 [Compound 27]
- BRD2/Vinculin intensity (relative to control group) [1]: 30.4848 and 27.4717 and 21.0618 and 23.6161
- Value (Mean ± SD): Relative BRD2 levels remaining in Hep G2 cells after treatment with compounds followed by treatment with 9, with DMSO control for normalization (pretreated at 30 μM 1 h): 25.66 ± 3.60

Structure (SMILES): O=C1Nc2ccccc2C1=CC=Cc1ccccc1 [Compound 28]
- BRD2/Vinculin intensity (relative to control group) [1]: 22.3518 and 31.2898 and 26.3948 and 28.7193
- Value (Mean ± SD): Relative BRD2 levels remaining in Hep G2 cells after treatment with compounds followed by treatment with 9, with DMSO control for normalization (pretreated at 30 μM 1 h): 27.19 ± 3.29

Structure (SMILES): COc1cc2c(cc1OC)C(=CC=Cc1ccc(N(C)C)cc1)C(=O)N2 [Compound 29]
- BRD2/Vinculin intensity (relative to control group) [1]: 35.199 and 32.8298 and 30.2931 and 29.1162
- Value (Mean ± SD): Relative BRD2 levels remaining in Hep G2 cells after treatment with compounds followed by treatment with 9, with DMSO control for normalization (pretreated at 30 μM 1 h): 31.86 ± 2.35

Structure (SMILES): CCOc1ccc(Br)c(C=C2C(=O)Nc3ccc(Br)cc32)c1 [Compound 30]
- BRD2/Vinculin intensity (relative to control group) [1]: 30.1563 and 42.48 and 35.4039 and 36.6749
- Value (Mean ± SD): Relative BRD2 levels remaining in Hep G2 cells after treatment with compounds followed by treatment with 9, with DMSO control for normalization (pretreated at 30 μM 1 h): 36.18 ± 4.38

Structure (SMILES): COc1cc(C)c(C=C2C(=O)Nc3ccccc32)cc1C [Compound 31]
- BRD2/Vinculin intensity (relative to control group) [1]: 36.8879 and 36.7406 and 37.2822 and 33.8929
- Value (Mean ± SD): Relative BRD2 levels remaining in Hep G2 cells after treatment with compounds followed by treatment with 9, with DMSO control for normalization (pretreated at 30 μM 1 h): 36.20 ± 1.35

Structure (SMILES): COc1cc(OC)c(OC)cc1C=C1C(=O)Nc2ccc(Br)cc21 [Compound 32]
- BRD2/Vinculin intensity (relative to control group) [1]: 37.3799 and 42.1343 and 35.9887 and 37.382
- Value (Mean ± SD): Relative BRD2 levels remaining in Hep G2 cells after treatment with compounds followed by treatment with 9, with DMSO control for normalization (pretreated at 30 μM 1 h): 38.22 ± 2.33

Structure (SMILES): O=C1Nc2cc(Cl)c(Cl)cc2C1=Cc1cc(Br)c(OCCO)c(Br)c1 [Compound 33]
- BRD2/Vinculin intensity (relative to control group) [1]: 39.4036 and 41.0431 and 32.5156 and 41.2316
- Value (Mean ± SD): Relative BRD2 levels remaining in Hep G2 cells after treatment with compounds followed by treatment with 9, with DMSO control for normalization (pretreated at 30 μM 1 h): 38.55 ± 3.55

Structure (SMILES): CCOc1cccc(C=C2C(=O)Nc3ccc(Br)cc32)c1O [Compound 34]
- BRD2/Vinculin intensity (relative to control group) [1]: 32.5833 and 35.4683 and 36.0421 and 51.0354
- Value (Mean ± SD): Relative BRD2 levels remaining in Hep G2 cells after treatment with compounds followed by treatment with 9, with DMSO control for normalization (pretreated at 30 μM 1 h): 38.78 ± 7.19

Structure (SMILES): COc1cc2c(cc1OC)C(=Cc1ccc(OC)c(OC)c1OC)C(=O)N2 [Compound 35]
- Value (Mean ± SD): Relative BRD2 levels remaining in Hep G2 cells after treatment with compounds followed by treatment with 9, with DMSO control for normalization (pretreated at 30 μM 1 h): 43.80 ± 10.34

Structure (SMILES): COc1cc(C=C2C(=O)Nc3ccc(Br)cc32)ccc1O [Compound 36]
- BRD2/Vinculin intensity (relative to control group) [1]: 48.1488 and 40.4194 and 43.1435 and 45.121
- Value (Mean ± SD): Relative BRD2 levels remaining in Hep G2 cells after treatment with compounds followed by treatment with 9, with DMSO control for normalization (pretreated at 30 μM 1 h): 44.21 ± 2.82

Structure (SMILES): COc1cc(C=C2C(=O)N(C(C)=O)c3ccc(Br)cc32)c(Br)cc1OC(C)=O [Compound 37]
- BRD2/Vinculin intensity (relative to control group) [1]: 55.6586 and 50.2433 and 39.6211 and 39.558
- Value (Mean ± SD): Relative BRD2 levels remaining in Hep G2 cells after treatment with compounds followed by treatment with 9, with DMSO control for normalization (pretreated at 30 μM 1 h): 46.27 ± 6.95

Structure (SMILES): COc1cc(C=C2C(=O)Nc3ccc(Br)cc32)cc(OC)c1OC [Compound 38]
- BRD2/Vinculin intensity (relative to control group) [1]: 42.8563 and 47.1155 and 46.6713 and 48.8801
- Value (Mean ± SD): Relative BRD2 levels remaining in Hep G2 cells after treatment with compounds followed by treatment with 9, with DMSO control for normalization (pretreated at 30 μM 1 h): 46.38 ± 2.20

Structure (SMILES): CCOc1c(O)ccc(C=C2C(=O)Nc3ccc(Br)cc32)c1[N+](=O)[O-] [Compound 39]
- BRD2/Vinculin intensity (relative to control group) [1]: 52.2917 and 48.4313 and 42.763 and 42.1712
- Value (Mean ± SD): Relative BRD2 levels remaining in Hep G2 cells after treatment with compounds followed by treatment with 9, with DMSO control for normalization (pretreated at 30 μM 1 h): 46.41 ± 4.18

Structure (SMILES): O=C1Nc2ccc([N+](=O)[O-])cc2C1=Cc1cc(Br)c(OCCO)c(Br)c1 [Compound 41]
- BRD2/Vinculin intensity (relative to control group) [1]: 35.3006 and 58.464 and 60.939
- Value (Mean ± SD): Relative BRD2 levels remaining in Hep G2 cells after treatment with compounds followed by treatment with 9, with DMSO control for normalization (pretreated at 30 μM 1 h): 51.57 ± 11.55

Structure (SMILES): O=C1Nc2cccc(Br)c2C1=Cc1cc(Br)c(OCCO)c(Br)c1 [Compound 43]
- BRD2/Vinculin intensity (relative to control group) [1]: 65.9619 and 44.3044 and 51.8651 and 61.4106
- Value (Mean ± SD): Relative BRD2 levels remaining in Hep G2 cells after treatment with compounds followed by treatment with 9, with DMSO control for normalization (pretreated at 30 μM 1 h): 55.89 ± 8.40

Structure (SMILES): O=C1Nc2c(Br)cccc2C1=Cc1cc(Br)c(OCCO)c(Br)c1 [Compound 44]
- BRD2/Vinculin intensity (relative to control group) [1]: 58.0241 and 42.9089 and 68.5528 and 58.6725
- Value (Mean ± SD): Relative BRD2 levels remaining in Hep G2 cells after treatment with compounds followed by treatment with 9, with DMSO control for normalization (pretreated at 30 μM 1 h): 57.04 ± 9.16

Structure (SMILES): O=C1Nc2cc(Br)ccc2C1=Cc1cc(Br)c(OCCO)c(Br)c1 [Compound 46]
- Value (Mean ± SD): Relative BRD2 levels remaining in Hep G2 cells after treatment with compounds followed by treatment with 9, with DMSO control for normalization (pretreated at 30 μM 1 h): 70.23 ± 9.63

Structure (SMILES): O=C1C(=Cc2cc(Br)c(OCCO)c(Br)c2)c2ccccc2N1c1ccccc1 [Compound 47]
- Value (Mean ± SD): Relative BRD2 levels remaining in Hep G2 cells after treatment with compounds followed by treatment with 9, with DMSO control for normalization (pretreated at 30 μM 1 h): 72.76 ± 4.44

Structure (SMILES): NS(=O)(=O)OC[C@@H]1C[C@@H](n2ccc3c(N[C@H]4CCc5ccccc54)ncnc32)C[C@@H]1O [MLN4924, reference compound]
- BRD2/Vinculin intensity (relative to control group) (pretreated with MLN4924 at 1 μM 1 h): 108.675 and 116.153 and 114.111
- Value (Mean ± SD): Relative BRD2 levels remaining in Hep G2 cells after treatment with compounds followed by treatment with 9, with DMSO control for normalization (MLN4924 at 1 μM 1 h): 112.98 ± 3.16
